{"source": "patent US5633263A", "about": "“Linear somatostatin analogs” (The Administrators of the Tulane Educational Fund, priority 1994, dated 1997)", "key": {"[1]": {"molecular_target": "[125I-Tyr11]SRIF-14 binding to crude membrane preparations from rat pancreas", "assay": "Inhibition of [125I]SRIF-14 binding, pancreas membranes", "conditions": "for IC50: rat pancreas membranes, [125I]SRIF-14 approximately 0.05 nM, read-out: IC50 (nM) Pancreas, inhibition of I125 SRIF-14 binding", "description": "(§1) Crude membrane preparations were obtained from rat pancreas, cerebral cortex, or human small cell lung carcinoma (NCI-H69) cells by homogenizing (Polytron, setting 6, 15 sec) the tissues or cells in ice-cold 50 mM Tris-HCl and centrifuging twice at 39,000× g (10 min), with an intermediate resuspension in fresh buffer. The final pellets were resuspended in 10 mM Tris-HCl for assay. Aliquots of the membrane preparation were incubated for 25 min at 30° C. with labeled somatotropin-release-inhibiting factor, [^125 I-Tyr^11 ] SRIF-14 (2000 Ci/mmol, Amersham Corp.), in 50 mM HEPES (pH 7.4) containing bovine serum albumin (10 mg/ml; fraction V, Sigma Chem.), MgCl2 (5mM), Trasylol (200 KIU/ml), bacitracin (0.02 mg/ml), and phenylmethylsulphonyl fluoride (0.02 mg/ml). The final assay volume was 0.3 ml. The incubations were terminated by rapid filtration through Whatman GF/C filters (pre-soaked in 0.3% polyethylenimine) under reduced pressure. Each tube and filter were then washed three times with 5 ml aliquots of ice-cold buffer. Specific binding was defined as the total [^125 I]SRIF-14 bound minus that bound in the presence of 200 nM unlabelled SRIF-14.\nTable 1 gives results of inhibition of [^125 I]SRIF-14 binding by linear peptides of the invention. The concentration of [^125 I]SRIF-14 was approximately 0.05 nM. (Values in parenthesis indicate the number of independent determinations.) The IC50 (concentration of analog resulting is 50% competitive inhibition) in nM values are indicated for pancreas, small cell lung carcinoma (SCLC), and brain. […] Peptide DC-23-85, which is not within the invention, inhibits the binding of I^125 SRIF-14 only poorly."}, "[2]": {"system": "[125I-Tyr11]SRIF-14 binding to crude membrane preparations from human small cell lung carcinoma (NCI-H69) cells", "assay": "Inhibition of [125I]SRIF-14 binding, SCLC membranes", "conditions": "[125I]SRIF-14 approximately 0.05 nM, read-out: IC50 (nM) SCLC, inhibition of I125 SRIF-14 binding", "description": "as §1\n(§2) Table 1 gives results of inhibition of [^125 I]SRIF-14 binding by linear peptides of the invention. The concentration of [^125 I]SRIF-14 was approximately 0.05 nM. […]"}, "[3]": {"molecular_target": "[125I-Tyr11]SRIF-14 binding to crude membrane preparations from rat cerebral cortex", "assay": "Inhibition of [125I]SRIF-14 binding, brain membranes", "conditions": "[125I]SRIF-14 approximately 0.05 nM, read-out: IC50 (nM) Brain, inhibition of I125 SRIF-14 binding", "description": "as §1, §2"}}, "note": "Where a SMILES comes first, the peptide text is derived from it. [ ]: non-standard residue; d: D form."}
{"smiles": "C[C@@H](O)[C@H](NC(=O)[C@H](Cc1ccccc1)NC(=O)[C@@H](NC(=O)[C@H](CCCCN)NC(=O)[C@@H](Cc1c[nH]c2ccccc12)NC(=O)[C@H](Cc1ccccc1)NC(=O)[C@H](Cc1ccccc1)NC(=O)[C@H](N)Cc1ccccc1)[C@@H](C)O)C(N)=O", "note": "[BIM-23052/DC-23-99, D-Phe-Phe-Phe-D-Trp-Lys-Thr-Phe-Thr-NH2] (H-[dF]FF[dW]KTFT-NH2)", "values": [{"measurement": "IC50", "setting": "[1]", "value": 9.4, "unit": "nM"}, {"measurement": "inhibiting the binding of I125 SRIF-14 (in words)", "setting": "[1]; summary in words of Table 1 (pancreas, SCLC, brain)", "value": "particularly effective"}, {"measurement": "IC50", "setting": "[2]", "value": 1.2, "unit": "nM"}, {"measurement": "IC50", "setting": "[3]", "value": 7.3, "unit": "nM"}]}
{"smiles": "C[C@H](N)C(=O)NCC(=O)N[C@H]1CSSC[C@@H](C(=O)O)NC(=O)[C@H](CO)NC(=O)[C@H]([C@@H](C)O)NC(=O)[C@H](Cc2ccccc2)NC(=O)[C@H]([C@@H](C)O)NC(=O)[C@H](CCCCN)NC(=O)[C@H](Cc2c[nH]c3ccccc23)NC(=O)[C@H](Cc2ccccc2)NC(=O)[C@H](Cc2ccccc2)NC(=O)[C@H](CC(N)=O)NC(=O)[C@H](CCCCN)NC1=O", "note": "[Somatostatin, Ala-Gly-Cys-Lys-Asn-Phe-Phe-Trp-Lys-Thr-Phe-Ser-OH]", "values": [{"measurement": "IC50", "setting": "[1]", "value": 0.53, "unit": "nM"}, {"measurement": "IC50", "setting": "[2]", "value": 4.2, "unit": "nM"}, {"measurement": "IC50", "setting": "[3]", "value": 0.53, "unit": "nM"}]}
